We go through three compounds from BindingDB's records for patent US20260022122 (Checkmate Therapeutics, 2026).

Molecules are shown by their SMILES.

The target of the assay is Nicotinamide phosphoribosyltransferase (Homo sapiens, UniProt P43490). The experiment in a line: Measurement of NamPT Inhibitory Ability IC50. The protocol: To test the effect of the compound prepared in each Example on the substrate decomposition rate (Vmax/min) mediated by NamPT enzyme, IC50 was calculated. In this experiment, the NamPT colorimetric assay kit (ab221819) produced by Abcam was used, and Graph prism software was used for IC50 calculation. PRPP, ATP, NMNAT1, NamPT recombinant proteins, and various concentrations of the compound of each Example (half-log step dilution from 100 μM) were added to nicotinamide to synthesize nicotinamide adenine dinucleotide (NAD) from the nicotinamide, and a total of 60 μL of the reaction solution was reacted at room temperature for 1 hour. WST-1 formazan converted by NAD generated by adding WST-1 was measured. The result of the reaction was obtained by the following formula by measuring absorbance using EnVision2105 (PerkinElmer) at 450 nm for 60 minutes at 2-minute intervals.
Chain of Nicotinamide phosphoribosyltransferase (P43490 whole entry): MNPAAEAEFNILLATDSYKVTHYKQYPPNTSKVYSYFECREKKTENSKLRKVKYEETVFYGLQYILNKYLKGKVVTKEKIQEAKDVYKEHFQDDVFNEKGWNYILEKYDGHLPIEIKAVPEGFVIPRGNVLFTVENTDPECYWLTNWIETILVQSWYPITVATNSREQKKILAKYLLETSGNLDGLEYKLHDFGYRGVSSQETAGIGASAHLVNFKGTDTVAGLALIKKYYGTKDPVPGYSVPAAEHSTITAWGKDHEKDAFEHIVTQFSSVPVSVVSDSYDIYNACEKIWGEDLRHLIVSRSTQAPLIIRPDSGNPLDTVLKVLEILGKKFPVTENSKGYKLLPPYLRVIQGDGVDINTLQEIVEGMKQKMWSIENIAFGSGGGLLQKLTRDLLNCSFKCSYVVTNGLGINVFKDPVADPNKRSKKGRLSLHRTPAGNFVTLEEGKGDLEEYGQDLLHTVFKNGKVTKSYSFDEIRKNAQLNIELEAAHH
For `CC(C)c1ccc2nc(-c3ccc(CNC(=O)c4cnc5nccn5c4)cc3)oc2c1`, the IC50 – broadly, the midpoint of a concentration-inhibition curve – was < 50 nM.
For `CS(=O)(=O)Nc1ccc2oc(-c3ccc(CNC(=O)c4cnc5nccn5c4)cc3)nc2c1` [US20260022122, Example 47], the IC50 is < 50 nM.
Consider `Cc1ccc2sc(-c3ccc(CNC(=O)c4cnc5nccn5c4)cc3)nc2c1` [US20260022122, Example 48], for which the IC50 is < 50 nM.
